This test has as its target T1, human CTPS1 (Homo sapiens, UniProt P17812).
T1 sequence (P17812 1-591): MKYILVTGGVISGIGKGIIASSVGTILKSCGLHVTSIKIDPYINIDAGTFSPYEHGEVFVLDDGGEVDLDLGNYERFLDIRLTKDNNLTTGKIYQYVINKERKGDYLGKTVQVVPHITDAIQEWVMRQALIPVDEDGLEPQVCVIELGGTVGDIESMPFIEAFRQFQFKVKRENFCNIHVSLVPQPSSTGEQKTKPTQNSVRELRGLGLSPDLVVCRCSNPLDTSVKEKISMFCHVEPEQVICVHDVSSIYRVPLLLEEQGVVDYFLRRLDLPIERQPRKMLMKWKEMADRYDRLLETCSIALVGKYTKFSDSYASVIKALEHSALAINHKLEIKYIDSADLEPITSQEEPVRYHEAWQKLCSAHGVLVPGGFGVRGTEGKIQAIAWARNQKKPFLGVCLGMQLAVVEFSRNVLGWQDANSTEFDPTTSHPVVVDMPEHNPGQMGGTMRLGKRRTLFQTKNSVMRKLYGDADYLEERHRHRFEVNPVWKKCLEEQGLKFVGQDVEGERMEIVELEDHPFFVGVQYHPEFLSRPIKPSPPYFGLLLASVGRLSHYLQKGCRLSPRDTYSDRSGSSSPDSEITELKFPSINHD
Put plainly: ADP-Glo assay, human CTPS1 enzyme inhibition. The test is classed as biochemical. Conditions: wild-type human CTPS1, 25 nM enzyme; ADP-Glo; read-out: ADP-Glo_WT_hCTPS1—25 nM_IC50 (IC50). An outline of the steps:
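Full-length tagged human CTPS1 (25 nM) pre-incubated 10 min at 25° C with compound, then 10 min with ATP (120 μM) and UTP (160 μM); reaction started with L-glutamine (100 μM) and GTP (60 μM), 1% DMSO, in HEPES pH 7.4, 10 mM Mg2+, 5 mM KCl, 2 mM DTT. Run within linear phase at 25° C; ADP measured by ADP-Glo luminescence.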
(In ADP-Glo the light output rises with the ADP produced.)

Data on 24 compounds can be found in patent publication US20250270200A1, “CTPS1 INHIBITORS AND USES THEREOF” (Nimbus Clotho, Inc., priority 2022, published 2025).

Each structure is given as a SMILES string. Structures can show the parent of a compound that is named as a salt. Some results are limits rather than exact numbers.

`CCOc1cncc(-c2cnc(C(=O)N[C@H](CN3C[C@H]4CC[C@@H]3C4)c3cc(NS(=O)(=O)C4CC4)ccn3)s2)n1` [I-150, N-((R)-2-((1R,4S)-2-azabicyclo[2.2.1]heptan-2-yl)-1-(4-(cyclopropanesulfonamido)pyridin-2-yl)ethyl)-5-(6-ethoxypyrazin-2-yl)thiazole-2-carboxamide]: the half-maximal inhibitory concentration (IC50) (commonly the concentration that gives 50% inhibition) lay within 5 to 25 nM.

Consider `CCOc1cncc(-c2cnc(C(=O)N[C@@H](CN3C[C@H]4C[C@@H](C3)C4)c3cc(NS(=O)(=O)C4CC4)ccn3)s2)n1` [I-151, N-((S)-2-((1R,5R)-3-azabicyclo[3.1.1]heptan-3-yl)-1-(4-(cyclopropanesulfonamido)pyridin-2-yl)ethyl)-5-(6-ethoxypyrazin-2-yl)thiazole-2-carboxamide], for which the concentration for half-maximal inhibition (IC50) was in the range of 50 to 100 nM. The figure for `CCOc1cncc(-c2cnc(C(=O)N[C@H](CN3C[C@H]4C[C@@H](C3)C4)c3cc(NS(=O)(=O)C4CC4)ccn3)s2)n1` [I-152, N-((R)-2-((1R,5R)-3-azabicyclo[3.1.1]heptan-3-yl)-1-(4-(cyclopropanesulfonamido)pyridin-2-yl)ethyl)-5-(6-ethoxypyrazin-2-yl)thiazole-2-carboxamide] is 5 to 25 nM.

Consider `CCOc1cncc(-c2cnc(C(=O)N[C@@H](CN3CC4(CCC4)C3)c3cc(NS(=O)(=O)C4CC4)ccn3)s2)n1` [I-153, (S)-N-(1-(4-(cyclopropanesulfonamido)pyridin-2-yl)-2-(2-azaspiro[3.3]heptan-2-yl)ethyl)-5-(6-ethoxypyrazin-2-yl)thiazole-2-carboxamide], for which the IC50 was in the range of 25 to 50 nM. The figure for `CCOc1cncc(-c2cnc(C(=O)N[C@H](CN3CC4(CCC4)C3)c3cc(NS(=O)(=O)C4CC4)ccn3)s2)n1` [I-154, (R)-N-(1-(4-(cyclopropanesulfonamido)pyridin-2-yl)-2-(2-azaspiro[3.3]heptan-2-yl)ethyl)-5-(6-ethoxypyrazin-2-yl)thiazole-2-carboxamide] is 5 to 25 nM; for `CCOc1cncc(-c2cnc(C(=O)N[C@H](Cn3ccnn3)c3cc(NS(=O)(=O)C4CC4)ccn3)s2)n1` [I-156, (R)-N-(1-(4-(cyclopropanesulfonamido)pyridin-2-yl)-2-(1H-1,2,3-triazol-1-yl)ethyl)-5-(6-ethoxypyrazin-2-yl)thiazole-2-carboxamide] it is 5 to 25 nM; for `CCOc1cncc(-c2cnc(C(=O)N[C@@H](Cn3nccn3)c3cc(NS(=O)(=O)C4CC4)ccn3)s2)n1` [I-157, (S)-N-(1-(4-(cyclopropanesulfonamido)pyridin-2-yl)-2-(2H-1,2,3-triazol-2-yl)ethyl)-5-(6-ethoxypyrazin-2-yl)thiazole-2-carboxamide] it is 25 to 50 nM. To `CCOc1cncc(-c2cnc(C(=O)N[C@H](Cn3nccn3)c3cc(NS(=O)(=O)C4CC4)ccn3)s2)n1` [I-158, (R)-N-(1-(4-(cyclopropanesulfonamido)pyridin-2-yl)-2-(2H-1,2,3-triazol-2-yl)ethyl)-5-(6-ethoxypyrazin-2-yl)thiazole-2-carboxamide] belongs 5 to 25 nM.

For the compound `O=C(NC(CN1C[C@H]2C[C@@H]1CO2)c1cc(NS(=O)(=O)C2CC2)ccn1)c1ncc(-c2cnn3ccc(Cl)cc23)s1` (stereo partly drawn) [I-159, N-(2-((1R,4R)-2-oxa-5-azabicyclo[2.2.1]heptan-5-yl)-1-(4-(cyclopropanesulfonamido)pyridin-2-yl)ethyl)-5-(5-chloropyrazolo[1,5-a]pyridin-3-yl)thiazole-2-carboxamide], the half-inhibitory concentration (IC50) lay in the range of 5 to 25 nM. To `CCOc1cncc(-c2cnc(C(=O)N[C@@H](CF)c3cc(NS(=O)(=O)C4CC4)ccn3)s2)n1` [I-160, (R)-N-(1-(4-(cyclopropanesulfonamido)pyridin-2-yl)-2-fluoroethyl)-5-(6-ethoxypyrazin-2-yl)thiazole-2-carboxamide] belongs 5 to 25 nM. Take `CCOc1cncc(-c2cnc(C(=O)N[C@H](CF)c3cc(NS(=O)(=O)C4CC4)ccn3)s2)n1` [I-161, (S)-N-(1-(4-(cyclopropanesulfonamido)pyridin-2-yl)-2-fluoroethyl)-5-(6-ethoxypyrazin-2-yl)thiazole-2-carboxamide]: the 50% inhibitory concentration (IC50) is no more than 5 nM. The figure for `O=C(N[C@@H](CN1CCCC1)c1cc(NS(=O)(=O)C2CC2)ccn1)c1ncc(-c2cnn3ccc(Cl)cc23)s1` [I-162, (S)-5-(5-chloropyrazolo[1,5-a]pyridin-3-yl)-N-(1-(4-(cyclopropanesulfonamido)pyridin-2-yl)-2-(pyrrolidin-1-yl)ethyl)thiazole-2-carboxamide] is 50 to 100 nM; for `O=C(N[C@H](CN1CCCC1)c1cc(NS(=O)(=O)C2CC2)ccn1)c1ncc(-c2cnn3ccc(Cl)cc23)s1` [I-163, (R)-5-(5-chloropyrazolo[1,5-a]pyridin-3-yl)-N-(1-(4-(cyclopropanesulfonamido)pyridin-2-yl)-2-(pyrrolidin-1-yl)ethyl)thiazole-2-carboxamide] it is 25 to 50 nM. To `CN(C)C[C@H](NC(=O)c1ncc(-c2cnn3ccc(Cl)cc23)s1)c1cc(NS(=O)(=O)C2CC2)ccn1` [I-164, (S)-5-(5-chloropyrazolo[1,5-a]pyridin-3-yl)-N-(1-(4-(cyclopropanesulfonamido)pyridin-2-yl)-2-(dimethylamino)ethyl)thiazole-2-carboxamide, formic acid salt] belongs 50 to 100 nM; to `CN(C)C[C@@H](NC(=O)c1ncc(-c2cnn3ccc(Cl)cc23)s1)c1cc(NS(=O)(=O)C2CC2)ccn1` [I-165, (R)-5-(5-chloropyrazolo[1,5-a]pyridin-3-yl)-N-(1-(4-(cyclopropanesulfonamido)pyridin-2-yl)-2-(dimethylamino)ethyl)thiazole-2-carboxamide, formic acid salt], 5 to 25 nM; to `CCOc1cncc(-c2cnc(C(=O)N[C@H](c3cc(NS(=O)(=O)C4CC4)ccn3)[C@H](C)N3C[C@H]4C[C@@H]3CO4)s2)n1` [I-166, N-((1S,2S)-2-((1R,4R)-2-oxa-5-azabicyclo[2.2.1]heptan-5-yl)-1-(4-(cyclopropanesulfonamido)pyridin-2-yl)propyl)-5-(6-ethoxypyrazin-2-yl)thiazole-2-carboxamide], 50 to 100 nM. `CCOc1cncc(-c2cnc(C(=O)N[C@H](c3cc(NS(=O)(=O)C4CC4)ccn3)[C@@H](C)N3C[C@H]4C[C@@H]3CO4)s2)n1` [I-167, N-((1S,2R)-2-((1R,4R)-2-oxa-5-azabicyclo[2.2.1]heptan-5-yl)-1-(4-(cyclopropanesulfonamido)pyridin-2-yl)propyl)-5-(6-ethoxypyrazin-2-yl)thiazole-2-carboxamide]: the IC50 lay in the range of 25 to 50 nM. To `CCOc1cncc(-c2cnc(C(=O)N[C@@H](c3cc(NS(=O)(=O)C4CC4)ccn3)[C@H](C)N3C[C@H]4C[C@@H]3CO4)s2)n1` [I-168, N-((1R,2S)-2-((1R,4R)-2-oxa-5-azabicyclo[2.2.1]heptan-5-yl)-1-(4-(cyclopropanesulfonamido)pyridin-2-yl)propyl)-5-(6-ethoxypyrazin-2-yl)thiazole-2-carboxamide] belongs 5 to 25 nM; to `CCOc1cncc(-c2cnc(C(=O)N[C@@H](c3cc(NS(=O)(=O)C4CC4)ccn3)[C@@H](C)N3C[C@H]4C[C@@H]3CO4)s2)n1` [I-169, N-((1R,2R)-2-((1R,4R)-2-oxa-5-azabicyclo[2.2.1]heptan-5-yl)-1-(4-(cyclopropanesulfonamido)pyridin-2-yl)propyl)-5-(6-ethoxypyrazin-2-yl)thiazole-2-carboxamide], 25 to 50 nM; to `CCOc1ccn2ncc(-c3cnc(C(=O)NCc4cc(NS(=O)(=O)C5CC5)ccn4)s3)c2c1` [I-170, N-((4-(cyclopropanesulfonamido)pyridin-2-yl)methyl)-5-(5-ethoxypyrazolo[1,5-a]pyridin-3-yl)thiazole-2-carboxamide], greater than 100 nM. The figure for `CCOc1cncc(-c2ccc(C(=O)NCc3cc(NS(=O)(=O)C4CC4)ccn3)cn2)n1` [I-172, N-((4-(cyclopropanesulfonamido)pyridin-2-yl)methyl)-6-(6-ethoxypyrazin-2-yl)nicotinamide] is 25 to 50 nM; for `CCOc1cncc(-c2ccc(C(=O)NCc3cc(NS(=O)(=O)C4CC4)ccn3)cc2F)n1` [I-173, N-((4-(cyclopropanesulfonamido)pyridin-2-yl)methyl)-4-(6-ethoxypyrazin-2-yl)-3-fluorobenzamide] it is 5 to 25 nM; for `CCOc1cncc(-c2ccc(C(=O)NCc3cc(NS(=O)(=O)C4CC4)ccn3)c(F)c2F)n1` [I-175, N-((4-(cyclopropanesulfonamido)pyridin-2-yl)methyl)-4-(6-ethoxypyrazin-2-yl)-2,3-difluorobenzamide] it is 5 to 25 nM. For `CCOc1cncc(-c2cnc(C(=O)N[C@H](C)c3cc(NS(=O)(=O)C4CC4)ccn3)s2)n1` [I-176, (R)-N-(1-(4-(cyclopropanesulfonamido)pyridin-2-yl)ethyl)-5-(6-ethoxypyrazin-2-yl)thiazole-2-carboxamide], the IC50 lay in the range of 5 to 25 nM.
